# How the values were obtained:
# [1] = target: T1, recombinant human ACC1 (rhACC1) (Homo sapiens, UniProt Q13085, DEL44-44); test: recombinant hACC1 Transcreener assay (direct inhibition of ACC1 activity); assay type: biochemical; conditions: Transcreener ADP detection FP assay, 50 μM ATP, 30 μM acetyl-CoA, 120 min at 25° C.
# T1 construct: recombinant baculovirus containing full length human ACC1 cDNA; made in house; host or cells: SF9 insect cells (baculovirus)
# Outline: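 Full-length human ACC1 from baculovirus-infected SF9 cells, dephosphorylated with lambda phosphatase. Reaction in 50 mM HEPES pH 7.2 with 30 μM acetyl-CoA, 50 μM ATP, 10 mM KHCO3, 120 min at 25° C; ADP detected by Transcreener fluorescence polarisation.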
# [2] = target: T2, recombinant human ACC2 (rhACC2) (Homo sapiens, UniProt O00763, V2141I); test: recombinant hACC2 Transcreener assay (direct inhibition of ACC2 activity); assay type: biochemical; conditions: Transcreener ADP detection FP assay, 50 μM ATP, 30 μM acetyl-CoA, 50 min at 25° C.
# T2 construct: a full length Cytomax clone of ACC2 was purchased from Cambridge Bioscience Limited; made in house; host or cells: CHO cells (tetracycline-induced, pcDNA5 FRT TO-TOPO)
# T2 sequence (O00763 whole entry V2141I): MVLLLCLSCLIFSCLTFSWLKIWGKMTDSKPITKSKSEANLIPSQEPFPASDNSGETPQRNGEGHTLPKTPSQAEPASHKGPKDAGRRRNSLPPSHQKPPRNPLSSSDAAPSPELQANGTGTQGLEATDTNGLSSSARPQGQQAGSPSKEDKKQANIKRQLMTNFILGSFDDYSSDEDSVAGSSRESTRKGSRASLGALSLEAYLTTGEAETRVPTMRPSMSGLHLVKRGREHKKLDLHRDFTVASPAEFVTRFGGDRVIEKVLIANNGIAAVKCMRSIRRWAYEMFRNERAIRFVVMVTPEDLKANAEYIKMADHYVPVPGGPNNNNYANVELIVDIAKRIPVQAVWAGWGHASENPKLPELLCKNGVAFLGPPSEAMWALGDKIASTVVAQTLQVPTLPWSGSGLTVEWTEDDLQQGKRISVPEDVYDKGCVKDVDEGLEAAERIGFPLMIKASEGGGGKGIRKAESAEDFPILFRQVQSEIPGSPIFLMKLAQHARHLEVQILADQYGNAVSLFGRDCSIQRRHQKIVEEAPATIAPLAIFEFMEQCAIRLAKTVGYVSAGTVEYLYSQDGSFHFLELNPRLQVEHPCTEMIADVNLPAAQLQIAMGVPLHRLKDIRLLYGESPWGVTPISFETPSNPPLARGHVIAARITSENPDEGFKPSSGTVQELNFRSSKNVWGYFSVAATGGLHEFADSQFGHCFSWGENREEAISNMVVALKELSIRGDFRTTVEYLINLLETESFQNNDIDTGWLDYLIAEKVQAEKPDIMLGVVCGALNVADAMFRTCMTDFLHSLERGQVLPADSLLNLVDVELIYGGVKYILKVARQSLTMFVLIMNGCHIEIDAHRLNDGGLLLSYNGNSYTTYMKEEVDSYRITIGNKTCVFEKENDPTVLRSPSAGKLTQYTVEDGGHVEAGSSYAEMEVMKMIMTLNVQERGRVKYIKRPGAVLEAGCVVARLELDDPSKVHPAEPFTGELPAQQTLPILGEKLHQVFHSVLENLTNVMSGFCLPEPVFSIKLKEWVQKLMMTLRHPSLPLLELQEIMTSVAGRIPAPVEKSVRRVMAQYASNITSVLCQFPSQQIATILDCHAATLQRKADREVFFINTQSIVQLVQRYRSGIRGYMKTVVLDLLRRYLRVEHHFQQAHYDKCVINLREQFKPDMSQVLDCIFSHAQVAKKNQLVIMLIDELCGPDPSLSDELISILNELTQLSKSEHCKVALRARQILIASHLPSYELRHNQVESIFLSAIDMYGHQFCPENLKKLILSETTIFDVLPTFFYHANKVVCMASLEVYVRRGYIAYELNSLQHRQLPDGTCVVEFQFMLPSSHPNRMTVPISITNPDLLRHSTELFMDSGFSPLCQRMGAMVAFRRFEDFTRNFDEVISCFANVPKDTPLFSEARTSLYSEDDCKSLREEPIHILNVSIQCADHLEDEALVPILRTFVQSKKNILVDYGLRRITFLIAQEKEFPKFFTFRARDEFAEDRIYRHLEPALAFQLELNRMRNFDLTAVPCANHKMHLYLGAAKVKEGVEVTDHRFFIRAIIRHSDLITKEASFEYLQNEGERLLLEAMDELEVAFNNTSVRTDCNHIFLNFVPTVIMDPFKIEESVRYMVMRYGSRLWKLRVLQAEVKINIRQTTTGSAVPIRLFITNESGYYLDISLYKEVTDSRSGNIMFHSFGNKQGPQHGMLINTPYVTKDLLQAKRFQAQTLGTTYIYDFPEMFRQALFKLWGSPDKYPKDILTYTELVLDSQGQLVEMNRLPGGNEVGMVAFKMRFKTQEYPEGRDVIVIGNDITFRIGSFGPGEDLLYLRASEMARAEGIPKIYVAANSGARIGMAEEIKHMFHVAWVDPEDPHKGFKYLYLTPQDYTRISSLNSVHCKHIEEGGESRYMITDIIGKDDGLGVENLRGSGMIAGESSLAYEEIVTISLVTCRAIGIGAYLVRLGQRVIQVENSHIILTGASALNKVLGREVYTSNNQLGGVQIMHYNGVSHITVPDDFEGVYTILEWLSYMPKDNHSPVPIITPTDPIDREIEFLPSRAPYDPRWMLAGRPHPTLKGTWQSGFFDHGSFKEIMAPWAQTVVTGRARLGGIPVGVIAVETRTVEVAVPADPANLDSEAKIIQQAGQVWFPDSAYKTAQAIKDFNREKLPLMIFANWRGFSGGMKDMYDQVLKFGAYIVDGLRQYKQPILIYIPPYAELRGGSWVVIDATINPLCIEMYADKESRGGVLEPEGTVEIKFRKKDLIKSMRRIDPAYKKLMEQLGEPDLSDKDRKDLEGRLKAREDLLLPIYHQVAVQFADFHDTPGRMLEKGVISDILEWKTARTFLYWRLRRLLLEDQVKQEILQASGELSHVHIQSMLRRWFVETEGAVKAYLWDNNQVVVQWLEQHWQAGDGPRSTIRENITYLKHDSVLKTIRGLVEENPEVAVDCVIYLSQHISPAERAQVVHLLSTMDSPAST
# Outline: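 Full-length human ACC2 was expressed in CHO cells and avidin-purified. ADP formation was measured by Transcreener FP in 50 mM HEPES pH 7.2 with 30 μM acetyl-CoA, 50 μM ATP, 8 mM KHCO3 and 5 mM citrate. Reactions ran 50 min at 25 °C with 1% DMSO, then 1 h with stop/detect reagent.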
SMILES,IC50 [1] [nM],IC50 [2] [nM]
CC(C)(C)n1ncc2c1C(=O)CC1(CCN(C(=O)c3ccn4ccnc4c3)CC1)C2 [Example 11A-67],203,139
Cc1nn(C(C)C)c2c1CC1(CCN(C(=O)c3ccc4[nH]ncc4c3)CC1)CC2=O [Example 2A-75],113,37.7
Cc1ccn2cc(C(=O)N3CCC4(CC3)CC(=O)c3c(cnn3C(C)C)C4)nc2c1 [Example 11A-40],1140,588
Cc1cccn2cc(C(=O)N3CCC4(CC3)CC(=O)c3c(cnn3C(C)(C)C)C4)nc12 [Example 11A-16],621,190
CC(C)(C)n1ncc2c1C(=O)CC1(CCN(C(=O)c3cnc4cn[nH]c4c3)CC1)C2 [Example 11A-58],131,73.6
CC(C)n1ncc2c1C(=O)CC1(CCN(C(=O)c3cc(-c4cccnc4)[nH]n3)CC1)C2 [Example 11A-62],338,112
CC(C)n1ncc2c1C(=O)CC1(CCN(C(=O)c3ccc4c(cnn4C)c3)CC1)C2 [Example 2A-11],261,33.5
"CC(C)(C)n1nc(Br)c2c1C(=O)CC1(CCN(C(=O)c3cc(Br)c4[nH]c(=O)[nH]c4c3)CC1)C2 [Example 13A-1, 3-bromo-1′-(7-bromo-2-oxo-2,3-dihydro-1H-benzo[d]imidazole-5-carbonyl)-1-tert-butyl-4,6-dihydrospiro[indazole-5,4′-piperidin]-7(1H)-one]",264,316
CC(C)(C)n1ncc2c1C(=O)CC1(CCN(C(=O)c3ccc4c(c3)NC(=O)CC4)CC1)C2 [Example 2A-34],72.4,32.1
CC(C)(C)n1ncc2c1C(=O)CC1(CCN(C(=O)c3ccc4[nH]cnc4n3)CC1)C2 [Example 11A-68],825,285
"Cc1nn(C(C)C)c2c1CC1(CCN(C(=O)c3ccc4[nH]cnc4c3)CC1)CC2=O [Example 7A-1, 1′-(1H-benzo[d]imidazole-5-carbonyl)-1-isopropyl-3-methyl-4,6-dihydrospiro[indazole-5,4′-piperidin]-7(1H)-one]",63.2,39.8
CC(C)n1ncc2c1C(=O)CC1(CCN(C(=O)c3cn4ccccc4n3)CC1)C2 [Example 11A-28],917,391
CC(C)(C)n1ncc2c1C(=O)CC1(CCN(C(=O)c3cccc(-c4cc[nH]n4)c3)CC1)C2 [Example 11A-23],87.1,20.4
CC(C)(C)n1ncc2c1C(=O)CC1(CCN(C(=O)c3ccc(-c4ncc[nH]4)cc3)CC1)C2 [Example 11A-53],68.3,22.8
CC(C)(C)n1ncc2c1C(=O)CC1(CCN(C(=O)c3cc(Cl)c4nc[nH]c4c3)CC1)C2 [Example 2A-48],51.1,17.2
Cc1cc(N(C)C)ncc1C(=O)N1CCC2(CC1)CC(=O)c1c(cnn1C(C)C)C2 [Example 2A-18],1010,458
"O=C1CC2(CCN(C(=O)c3ccc4[nH]ncc4c3)CC2)Cc2cnn(C3COC3)c21 [Example 9A-1, 1′-(1H-indazole-5-carbonyl)-1-(oxetan-3-yl)-4,6-dihydrospiro[indazole-5,4′-piperidin]-7(1H)-one]",704,264
CC(C)(C)n1ncc2c1C(=O)CC1(CCN(C(=O)c3cc(F)c4[nH]ncc4c3)CC1)C2 [Example 2A-44],106,30.2
CC(C)(C)n1ncc2c1C(=O)CC1(CCN(C(=O)c3nc4ccccc4nc3N)CC1)C2 [Example 2A-39],527,122
CC(C)n1ncc2c1C(=O)CC1(CCN(C(=O)c3cccc(-c4ncc[nH]4)c3)CC1)C2 [Example 11A-41],122,30.1
Cc1nc2c(F)cc(C(=O)N3CCC4(CC3)CC(=O)c3c(cnn3C(C)(C)C)C4)cc2[nH]1 [Example 2A-55],266,105
CC(C)n1ncc2c1C(=O)CC1(CCN(C(=O)c3cccc(-c4cc[nH]n4)c3)CC1)C2 [Example 11A-15],112,43.8
Cc1ccc(O)c(C(=O)N2CCC3(CC2)CC(=O)c2c(cnn2C(C)(C)C)C3)n1 [Example 11A-44],4170,4600
CC(C)n1ncc2c1C(=O)CC1(CCN(C(=O)c3cc(Cl)c4nc[nH]c4c3)CC1)C2 [Example 2A-47],48.2,15.9
CC(C)n1ncc2c1C(=O)CC1(CCN(C(=O)c3ccc(-n4ccnc4)cn3)CC1)C2 [Example 11A-63],8720,2550
CC(C)n1ncc2c1C(=O)CC1(CCN(C(=O)c3ccc4c(c3)CC(=O)N4)CC1)C2 [Example 2A-27],308,91.8
CC(C)n1ncc2c1C(=O)CC1(CCN(C(=O)c3cnc(N4CCOCC4)nc3)CC1)C2 [Example 2A-66],30000,14000

SMILES,IC50 [1] [nM],IC50 [2] [nM]
CC(C)(C)n1ncc2c1C(=O)CC1(CCN(C(=O)c3ccc4cnccc4n3)CC1)C2 [Example 11A-61],2570,1350
CC(C)(C)n1ncc2c1C(=O)CC1(CCN(C(=O)c3ccnc(-c4cc[nH]n4)c3)CC1)C2 [Example 11A-26],130,41.5
CC(C)(C)n1ncc2c1C(=O)CC1(CCN(C(=O)c3cc(-c4cccnc4)[nH]n3)CC1)C2 [Example 11A-29],151,64.5
CC(C)n1ncc2c1C(=O)CC1(CCN(C(=O)c3ccc4ncccc4c3O)CC1)C2 [Example 2A-69],122,42.9
CC(C)n1ncc2c1C(=O)CC1(CCN(C(=O)c3ccc4[nH]nc(C#N)c4c3)CC1)C2 [Example 11A-9],34.4,19.7
CC(C)(C)n1ncc2c1C(=O)CC1(CCN(C(=O)c3cnc4[nH]ncc4c3)CC1)C2 [Example 2A-41],176,90
CC(C)(C)n1ncc2c1C(=O)CC1(CCN(C(=O)c3cnc4[nH]ccc4c3)CC1)C2 [Example 2A-23],32.3,23.3
Cc1cc(C(=O)N2CCC3(CC2)CC(=O)c2c(cnn2C(C)(C)C)C3)c(N)c(C)n1 [Example 11A-38],2170,1030
CC(C)(C)n1ncc2c1C(=O)CC1(CCN(C(=O)c3cnc4cc[nH]c4c3)CC1)C2 [Example 2A-24],30.7,15.8
"CC(C)n1nc(C#N)c2c1C(=O)CC1(CCN(C(=O)c3ccc4[nH]cnc4c3)CC1)C2 [Example 8A-1, 1′-(1H-benzo[d]imidazole-5-carbonyl)-1-isopropyl-7-oxo-1,4,6,7-tetrahydrospiro[indazole-5,4′-piperidine]-3-carbonitrile]",7620,1660
CC(C)(C)n1ncc2c1C(=O)CC1(CCN(C(=O)c3cc4cnccc4[nH]3)CC1)C2 [Example 11A-51],110,108
CC(C)n1ncc2c1C(=O)CC1(CCN(C(=O)c3ccn4ccnc4c3)CC1)C2 [Example 11A-52],550,176
CC(C)n1ncc2c1C(=O)CC1(CCN(C(=O)c3ccc(-n4cncn4)cc3)CC1)C2 [Example 11A-54],1500,295
CCn1ncc2c1C(=O)CC1(CCN(C(=O)c3ccc(Cl)c(C)c3)CC1)C2 [Example 2A-7],4340,965
Cc1cc(C(=O)N2CCC3(CC2)CC(=O)c2c(cnn2C)C3)ccc1Cl [Example 2A-4],8730,2530
Cc1cc(C(=O)N2CCC3(CC2)CC(=O)c2c(cnn2C(C)c2ccccc2)C3)ccc1Cl (stereo not drawn) [Example 2A-6],640,88.8
CC(C)n1ncc2c1C(=O)CC1(CCN(C(=O)c3cc4ccncc4[nH]3)CC1)C2 [Example 2A-64],229,253
CC(C)(C)n1ncc2c1C(=O)CC1(CCN(C(=O)c3cccc(-c4c[nH]cn4)c3)CC1)C2 [Example 11A-7],36.8,10.4
CC(C)(C)n1ncc2c1C(=O)CC1(CCN(C(=O)c3cnc4ccnn4c3N)CC1)C2 [Example 2A-43],304,149
CC(C)n1ncc2c1C(=O)CC1(CCN(C(=O)c3cn4cccc4cn3)CC1)C2 [Example 11A-34],2140,638
Cc1nc2ccc(C(=O)N3CCC4(CC3)CC(=O)c3c(cnn3C(C)(C)C)C4)cc2[nH]1 [Example 2A-21],93.3,32.7
Cn1ncc2c(N)c(C(=O)N3CCC4(CC3)CC(=O)c3c(cnn3C(C)(C)C)C4)cnc21 [Example 2A-59],115,69.2
CC(C)n1ncc2c1C(=O)CC1(CCN(C(=O)c3ccc4cn[nH]c4c3)CC1)C2 [Example 2A-68],68.4,51.2
CC(C)(C)n1ncc2c1C(=O)CC1(CCN(C(=O)c3ccc4c(=O)[nH]ccc4c3)CC1)C2 [Example 2A-22],1890,334
Cn1ncc2c(=O)c(C(=O)N3CCC4(CC3)CC(=O)c3c(cnn3C(C)(C)C)C4)c[nH]c21 [Example 11A-70],1860,1040
CC(C)(C)n1ncc2c1C(=O)CC1(CCN(C(=O)c3ccc4[nH]ncc4c3)CC1)C2 [Example 2A-28],47.8,17
Cc1nc2ccc(C(=O)N3CCC4(CC3)CC(=O)c3c(cnn3C3COC3)C4)cc2[nH]1 [Example 2A-42],1300,766

# From patent US9139587B2, “N1-pyrazolospiroketone acetyl-CoA carboxylase inhibitors” (Pfizer Inc., priority 2009, dated 2015)
